This passage reports Activity results from ChEMBL document CHEMBL1143937, “1-deoxyrubralactone, a novel specific inhibitor of families X and Y of eukaryotic DNA polymerases from a fungal strain derived from sea algae” (Bioorg Med Chem, 2008).

SMILES strings stand for the structures. The source made the active and inactive calls. No cut-off for these calls is given here.

For test [1], the target named is Human immunodeficiency virus type 1 reverse transcriptase (Human immunodeficiency virus 1) (UniProt Q72547). Description: Inhibition of human immunodeficiency virus 1 reverse transcriptase at 100 uM.
Another test relates to Escherichia phage T7. Put plainly: Inhibition of T7 RNA polymerase […] at 100 uM.
The species entered for another test is Homo sapiens. Put plainly: Inhibition of human DNA polymerase gamma at 100 uM.
Test [2] addresses Telomerase reverse transcriptase (Homo sapiens) (UniProt O14746). Description: Inhibition of human telomerase at 100 uM.
Test [3] concerns the target T1, DNA polymerase delta catalytic subunit (Homo sapiens) (UniProt P28340).
T1 sequence (whole entry): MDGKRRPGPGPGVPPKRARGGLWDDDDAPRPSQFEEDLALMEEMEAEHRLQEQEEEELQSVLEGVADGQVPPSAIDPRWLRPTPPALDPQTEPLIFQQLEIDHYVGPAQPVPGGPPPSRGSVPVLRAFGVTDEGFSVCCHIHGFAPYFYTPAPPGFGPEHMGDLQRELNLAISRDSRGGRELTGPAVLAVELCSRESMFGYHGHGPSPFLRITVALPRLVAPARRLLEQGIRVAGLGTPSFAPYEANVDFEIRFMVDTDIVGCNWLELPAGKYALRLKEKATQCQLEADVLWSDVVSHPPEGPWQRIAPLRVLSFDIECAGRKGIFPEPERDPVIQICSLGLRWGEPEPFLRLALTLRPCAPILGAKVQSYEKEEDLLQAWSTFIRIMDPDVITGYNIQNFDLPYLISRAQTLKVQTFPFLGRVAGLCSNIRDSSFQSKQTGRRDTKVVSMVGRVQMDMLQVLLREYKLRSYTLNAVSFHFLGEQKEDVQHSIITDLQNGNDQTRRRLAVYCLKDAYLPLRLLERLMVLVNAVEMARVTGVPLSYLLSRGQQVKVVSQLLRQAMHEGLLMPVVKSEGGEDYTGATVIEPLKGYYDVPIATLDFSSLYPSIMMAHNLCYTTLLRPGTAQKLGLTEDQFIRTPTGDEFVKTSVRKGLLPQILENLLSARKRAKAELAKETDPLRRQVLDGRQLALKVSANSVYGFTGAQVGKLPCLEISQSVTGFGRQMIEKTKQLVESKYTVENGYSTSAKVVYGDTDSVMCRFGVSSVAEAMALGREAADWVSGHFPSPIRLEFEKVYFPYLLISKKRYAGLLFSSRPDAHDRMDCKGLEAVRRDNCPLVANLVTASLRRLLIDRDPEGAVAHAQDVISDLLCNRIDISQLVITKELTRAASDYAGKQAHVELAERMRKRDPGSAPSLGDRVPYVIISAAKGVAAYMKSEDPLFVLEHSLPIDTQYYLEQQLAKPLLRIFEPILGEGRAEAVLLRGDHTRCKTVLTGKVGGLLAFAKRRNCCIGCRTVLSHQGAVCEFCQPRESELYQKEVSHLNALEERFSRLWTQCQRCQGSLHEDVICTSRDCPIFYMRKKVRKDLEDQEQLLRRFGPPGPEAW
Description: Inhibition of human DNA polymerase delta at 100 uM.

The subject of another test is Brassica oleracea. Put plainly: Inhibition of cauliflower DNA polymerase alpha at 100 uM.
A further test relates to Escherichia coli. Description: Inhibition of Escherichia coli DNA polymerase 1 at 100 uM.
The species named for test [4] is Bos taurus. Put plainly: Inhibition of calf primase DNA polymerase alpha at 100 uM.
In the next test the test system is Thermus aquaticus. Description: Inhibition of Taq DNA polymerase at 100 uM.
The next test has as its system Tequatrovirus T4. Description: Inhibition of T4 DNA polymerase at 100 uM.
The species entered for test [5] is Bos taurus. Put plainly: Inhibition of calf DNA polymerase alpha at 100 uM.
In test [6] the target is T2, DNA polymerase lambda (Homo sapiens) (UniProt Q9UGP5).
T2 sequence (whole entry): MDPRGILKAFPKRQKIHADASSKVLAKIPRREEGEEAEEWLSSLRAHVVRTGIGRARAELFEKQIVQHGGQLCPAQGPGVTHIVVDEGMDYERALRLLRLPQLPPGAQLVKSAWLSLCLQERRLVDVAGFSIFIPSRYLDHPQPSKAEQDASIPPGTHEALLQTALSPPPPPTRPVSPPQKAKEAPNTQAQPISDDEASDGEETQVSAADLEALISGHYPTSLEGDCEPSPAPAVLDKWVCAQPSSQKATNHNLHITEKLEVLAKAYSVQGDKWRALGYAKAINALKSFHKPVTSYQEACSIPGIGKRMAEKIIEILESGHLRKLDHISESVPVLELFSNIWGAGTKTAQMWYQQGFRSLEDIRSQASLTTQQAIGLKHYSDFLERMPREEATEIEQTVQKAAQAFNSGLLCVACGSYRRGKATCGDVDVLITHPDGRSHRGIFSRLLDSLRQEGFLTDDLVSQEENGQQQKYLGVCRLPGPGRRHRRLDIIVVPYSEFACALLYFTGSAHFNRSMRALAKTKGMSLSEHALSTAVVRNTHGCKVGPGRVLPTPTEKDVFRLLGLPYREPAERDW
Put plainly: Inhibition of human DNA polymerase lambda at 100 uM.

Test [7] has as its target T3, DNA polymerase eta (Homo sapiens) (UniProt Q9Y253).
T3 sequence (whole entry): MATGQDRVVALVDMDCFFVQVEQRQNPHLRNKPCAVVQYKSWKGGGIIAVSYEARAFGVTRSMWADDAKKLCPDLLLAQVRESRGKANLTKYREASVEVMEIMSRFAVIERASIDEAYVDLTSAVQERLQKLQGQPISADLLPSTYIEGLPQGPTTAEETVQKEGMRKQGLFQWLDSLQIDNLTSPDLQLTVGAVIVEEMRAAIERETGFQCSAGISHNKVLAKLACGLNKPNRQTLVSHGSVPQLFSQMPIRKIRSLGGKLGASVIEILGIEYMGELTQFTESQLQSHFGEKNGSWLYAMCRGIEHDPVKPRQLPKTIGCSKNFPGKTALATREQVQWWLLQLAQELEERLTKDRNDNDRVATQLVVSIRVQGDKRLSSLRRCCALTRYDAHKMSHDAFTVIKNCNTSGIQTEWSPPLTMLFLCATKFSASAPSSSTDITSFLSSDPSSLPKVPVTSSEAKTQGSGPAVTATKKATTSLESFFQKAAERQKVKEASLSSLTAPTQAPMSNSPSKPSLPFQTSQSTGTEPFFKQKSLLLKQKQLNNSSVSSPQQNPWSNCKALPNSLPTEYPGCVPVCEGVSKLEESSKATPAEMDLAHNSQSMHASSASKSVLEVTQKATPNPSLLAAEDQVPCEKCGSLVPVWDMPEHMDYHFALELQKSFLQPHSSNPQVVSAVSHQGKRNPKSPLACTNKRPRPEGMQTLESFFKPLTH
Description: Inhibition of human DNA polymerase eta at 100 uM.

The species named for test [8] is Bos taurus. Put plainly: Inhibition of calf terminal deoxynucleotidyl transferase at 100 uM.

Chain of Telomerase reverse transcriptase (Homo sapiens) (O14746 whole entry): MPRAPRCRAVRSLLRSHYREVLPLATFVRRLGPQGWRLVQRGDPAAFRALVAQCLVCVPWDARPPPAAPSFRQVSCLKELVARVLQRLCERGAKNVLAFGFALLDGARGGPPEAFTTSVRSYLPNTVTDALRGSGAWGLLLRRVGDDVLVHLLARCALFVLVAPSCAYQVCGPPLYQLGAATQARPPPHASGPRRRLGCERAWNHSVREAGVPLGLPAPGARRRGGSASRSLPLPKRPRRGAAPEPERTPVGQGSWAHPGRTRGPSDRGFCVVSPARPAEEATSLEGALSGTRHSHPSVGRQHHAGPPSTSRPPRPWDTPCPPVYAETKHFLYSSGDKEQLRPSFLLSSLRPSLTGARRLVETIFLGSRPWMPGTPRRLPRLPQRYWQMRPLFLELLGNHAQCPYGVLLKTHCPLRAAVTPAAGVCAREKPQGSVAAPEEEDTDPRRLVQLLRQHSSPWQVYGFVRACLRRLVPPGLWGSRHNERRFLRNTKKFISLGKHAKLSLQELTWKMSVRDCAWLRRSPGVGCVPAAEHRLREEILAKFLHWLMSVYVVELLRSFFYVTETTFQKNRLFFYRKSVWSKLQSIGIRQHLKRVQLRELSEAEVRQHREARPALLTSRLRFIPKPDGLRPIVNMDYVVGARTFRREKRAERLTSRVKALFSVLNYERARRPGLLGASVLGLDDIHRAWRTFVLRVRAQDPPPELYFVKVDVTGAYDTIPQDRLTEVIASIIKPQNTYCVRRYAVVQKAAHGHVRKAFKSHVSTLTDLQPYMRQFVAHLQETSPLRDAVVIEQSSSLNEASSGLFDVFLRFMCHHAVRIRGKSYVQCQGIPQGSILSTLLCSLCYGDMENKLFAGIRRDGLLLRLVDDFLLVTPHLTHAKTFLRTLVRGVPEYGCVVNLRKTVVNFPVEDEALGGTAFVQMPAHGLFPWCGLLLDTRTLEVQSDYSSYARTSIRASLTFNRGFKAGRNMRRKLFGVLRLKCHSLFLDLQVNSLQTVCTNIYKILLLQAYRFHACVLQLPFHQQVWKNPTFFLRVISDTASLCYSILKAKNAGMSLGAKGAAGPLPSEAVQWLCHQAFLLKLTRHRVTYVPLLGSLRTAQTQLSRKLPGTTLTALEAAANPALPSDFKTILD

On to `COc1cc(O)c2c(=O)oc3c(c2c1)C(C)CC3=O` (stereo not drawn), for which the outcome (in test [1]; with Escherichia phage T7; in the test filed under Homo sapiens; in test [2]; in test [3]; in the test with Brassica oleracea) was inactive. For the same molecule, the result in the test on Escherichia coli, in the test listed under Bos taurus [4], with Thermus aquaticus, in the test on Tequatrovirus T4 and in the test filed under Bos taurus [5] was inactive. Besides, the result (in test [6]; in test [7]; in the test listed under Bos taurus [8]) was Active.

In the case of `COc1cc(O)c2c(c1)C1(OC2=O)C(C)=CC(=O)C1O` (stereo not drawn) [TALAROFLAVONE], the result (in [1]; in the test with Escherichia phage T7; in the test listed under Homo sapiens; in [2]; in test [3]; with Brassica oleracea) was inactive. Moreover, the outcome with Escherichia coli, in the test listed under Bos taurus [4], with Thermus aquaticus, with Tequatrovirus T4 and in the test filed under Bos taurus [5] was inactive. The outcome (in test [6]; in test [7]; in the test filed under Bos taurus [8]) was Active.
